Like-named read-outs stand apart in the source and are kept apart here.
Key:
[1] = system: neoplastic cells collected from spleen and abdominal tumor biopsy specimens; assay: MiCK assay, patient specific cancer cell testing (Example 10); type: cell-based, human; details: person, tumor of unknown primary; for Max Resp. (KU): maximum apoptotic response over the concentrations tested; for efficacy for this patient, in words: single agents
Method: The experiments were conducted on neoplastic cells collected from spleen and abdominal tumor biopsy specimens from a person. The tumor specimens were of an unknown primary. The experiment consisted of using a MiCK assay, according to the present disclosure, to test the effectiveness of 37 potential anti-cancer drugs, combinations of these drugs, and various concentrations of these drugs.
Apoptotic readings greater than 5.0KU in the MiCK assay are considered to be highly sensitive and are associated with a good clinical response. […] It should be noted that the alkylating agents cyclophosphamide and ifosfamide require hepatic metabolic transformation to their active metabolite, 4HC and 4HI respectively, and therefore cannot be tested directly in vitro. For the MiCK assay their active metabolites, 4HC and 4HI respectively were used.

[2] = system: Purified breast cancer cells from 67 patient (Pt) biopsies; assay: MiCK assay of drug-induced apoptosis, breast cancer specimens; type: cell-based, human; details: for % >1: share of samples with KU >1; for % >3: share of samples with KU >3; for Mean Difference (95% CI) of KU vs Carbo: drug minus Carbo; for Mean Difference (95% CI) of KU vs Abraxane: drug minus Abraxane
Method: Apoptosis(KU)=(VmaxDrug Candidate Treated−VmaxControl)×60×X/(ODcontrol−ODblank)
Within 24 to 48 hours of collection, the specimen was minced, digested with 0.25% trypsin and 0.08% DNase for 1-2 hours at 37 C.°, and then filtered through a 100 micrometer cell strainer. When necessary, non-viable cells were removed by density gradient centrifugation. The cell suspension was then incubated for 30 min at 37° C. in a tissue culture flask to remove macrophages by adherence. For epithelial tumors lymphocytes were removed by 30 minute incubation with CD2 antibody conjugated magnetic beads for T lymphocytes and CD19 antibody conjugated magnetic beads for B lymphocytes. Remaining macrophages were removed, if necessary, using CD14 antibody conjugated magnetic beads. The final cell suspension was plated into a 96-well half-area plate, 120 microliter aliquot per well. The plate was incubated overnight at 37° C. with 5% carbon dioxide humidified atmosphere. 5×10^4 to 1.5×10^5 cells were seeded per well depending on the cell volume to give adequate well-bottom coverage.
Within 24 to 48 hours of collection, the specimen was treated as follows in order to purify and isolate cells from solid tumors: • Take the specimen out of the transport tube. • Put in a petri dish in 13 ml of PBS+high concentration of antibiotics (200 units/ml Penicillin+200 μg/ml streptomycin) and take measurements and picture of the specimen. […] In that case, one may make the determination to do a “pre-filtration” using sterile gauze over a 50 ml tube. Then proceed with the cell strainer filtration process referenced above. • Centrifuge the filtered cell suspension 1500 RPM 5 min • Discard the supernatant. To the pellet, add 5 ml of red blood cell lysis solution (standard NH4Cl containing lysis solution: Nh4Cl0.15M+KHCO3 10 mM+EDTA-4Na 0.1 mM, pH 7.2), incubate 2-3 min and add 5 ml of RPMI 10% FBS. • Centrifuge 5 min 1500 RPM. Resuspend the pellet in RPMI 10% FBS (1-10 ml depending on the pellet size). • Collect the second fraction in the enzyme and repeat the steps above. • Check the viability of all fractions and pool. Do a cytospin stain with Wright Giemsa to verify the cell content of the population. NOTE: this is done numerous times during the process of purification. • 3) When necessary, non-viable cells were removed by density gradient centrifugation. • Density gradient centrifugation (optiprep): first layer=2 ml cells+4.45 ml optiprep 40% in RPMI, second layer=optiprep 22.5% in RPMI, 3rd layer=0.5 ml of RPMI. Centrifuge at 2000 RPM for 20 min • Collect the viable cell layer, add 10 ml of RPMI 10% FBS, centrifuge at 1500 RPM for 5 min • Resuspend the pellet in RPMI 10% FBS (volume depends on the pellet size and on the next step required). • If mucin is present in the specimen: resuspend the pellet in 10 ml of PBS+20 mM DTT and incubate at 4° C. for 30 min to disintegrate the mucin. Wash with RPMI 1500 rpm for 5 min Resuspend the pellet in RPMI 10% FBS. • If the specimen is highly necrotic with presence of debris: Percoll 20% in HBSS, centrifuge at 800×g for 10 min • 4) The cell suspension was then incubated for 20 min at 37° C. in a tissue culture flask to remove macrophages by adherence. • The size and quantity of the flask and the volume used depends on the amount of cells.

[3] = kinetic units of apoptosis, mean over N patient samples (at least 9 per drug)
[4] = kinetic units of apoptosis, median over N patient samples
[5] = KU compared per patient, % of 24 patients
[6] = KU compared per patient, % of 35 patients

## CN(Cc1cnc2nc(N)nc(N)c2n1)c1ccc(C(=O)N[C@@H](CCC(=O)O)C(=O)O)cc1 [Methotrexate, methotrexate]
[1]
  Max Resp. (KU): 0.8 KU
[2]; [3]
  KU Mean: 0.9 KU
[2]; [4]
  KU Median: 0.9 KU

## O=P1(N(CCCl)CCCl)NCCCO1 (stereo not shown) [Cytoxan, cyclophosphamide]
[1]
  Max Resp. (KU): 8.4 KU
  efficacy for this patient, in words: highly effective results
[2]
  Cytox = Ifosf +/− 0.57 and both > 1: (55%)
  Cytox > Ifosf by more than 0.57 and Cytox > 1: (18%)
  Cytox and Ifosf both < 1: (27%)
  KU Mean: 2.8 KU
  KU Median: 2.6 KU
  Mean Difference (95% CI) of KU vs Ifosphamide: 0.34 (−0.07 to 0.76) KU

## O=c1[nH]cc(F)c(=O)[nH]1 [5FU, 5-fluorouracil]
[1]
  Max Resp. (KU): 0.3 KU
[2]; KU compared per patient, % of 13 patients
  5fu > Xeloda + 0.57: 2/13 (15%)
[2]; [3]
  KU Mean: 0.7 KU
[2]; [4]
  KU Median: 0.6 KU

## N.N.O=C([O-])C1(C(=O)[O-])CCC1.[Pt+2] [Carbo, Carboplatin]
[1]
  Max Resp. (KU): 6.0 KU
[2]; [5]
  Carbo = Cisplatin +/− 0.57 and both > 1: (17%)
  Carbo > Cisplatin by more than 0.57 and Carbo > 1: (8%)
  Cisplatin and Carbo both < 1: (17%)
[2]; [3]
  KU Mean: 1.6 KU
[2]; [4]
  KU Median: 1.6 KU
[2]
  % >1: 67%
  % >3: 13%

## N.N.[Cl][Pt][Cl] [Cisplatin]
[1]
  efficacy for this patient, in words: single drug with the most efficacy
[2]; [5]
  Cisplatin > Carbo + 0.57: (58%)
[2]; [3]
  KU Mean: 2.2 KU
[2]; [4]
  KU Median: 2.3 KU
[2]; patient pairwise comparison
  Mean Difference (95% CI) of KU vs Carbo: 0.88 KU
[2]; patient pairwise comparison, listed as cisplatin
  Mean Difference (95% CI) of KU vs Carbo: APOP>carboplatin
[2]; patient pairwise comparison, drug minus Oxali
  Mean Difference (95% CI) of KU vs Oxali: 0.33 KU
[2]
  % >1: 78%
  % >3: 22%

## Nc1ccn([C@@H]2O[C@H](CO)[C@@H](O)C2(F)F)c(=O)n1 [Gemzar, gemcitabine]
[1]
  Max Resp. (KU): 0.8 KU
[2]; [3]
  KU Mean: 1.0 KU
[2]; [4]
  KU Median: 0.8 KU

## CC(=O)O[C@@]12CO[C@@H]1C[C@H](O)[C@@]1(C)C(=O)[C@H](O)C3=C(C)[C@@H](OC(=O)[C@H](O)[C@@H](NC(=O)OC(C)(C)C)c4ccccc4)C[C@@](O)([C@@H](OC(=O)c4ccccc4)[C@H]21)C3(C)C [Taxotere, docetaxel]
[1]
  Max Resp. (KU): 2.3 KU
[2]; [6]
  Taxol and Taxotere < 1: (14%)
  Taxotere = Taxol +/− 0.57 and both > 1: (17%)
  Taxotere > Taxol by more than 0.57 and Taxotere > 1: (37%)
[2]; KU compared per patient, % of 35 patients, listed as docetaxel
  Taxotere > Taxol by more than 0.57 and Taxotere > 1: 37%
[2]; [3]
  KU Mean: 2.1 KU
[2]; [4]
  KU Median: 1.9 KU
[2]; patient pairwise comparison
  Mean Difference (95% CI) of KU vs Abraxane: 0.98 KU
[2]; patient pairwise comparison, drug minus Taxol
  Mean Difference (95% CI) of KU vs Taxol: 0.05 KU

## O=P1(NCCCl)OCCCN1CCCl (stereo not shown) [Ifosfamide, ifosfamide]
[1]
  Max Resp. (KU): 2.6 KU
[2]; KU compared per patient, % of 11 patients
  Ifosf > Cytox + 0.57: (0%)
[2]; [3]
  KU Mean: 1.7 KU
[2]; [4]
  KU Median: 1.5 KU

## CC(=O)O[C@H]1C(=O)[C@@]2(C)[C@H]([C@H](OC(=O)c3ccccc3)[C@]3(O)C[C@H](OC(=O)[C@H](O)[C@@H](NC(=O)c4ccccc4)c4ccccc4)C(C)=C1C3(C)C)[C@]1(OC(C)=O)CO[C@@H]1C[C@@H]2O [Taxol, paclitaxel]
[1]
  Max Resp. (KU): 1.6 KU
[2]; [3]
  KU Mean: 2.1 KU
[2]; [4]
  KU Median: 1.9 KU
[2]; patient pairwise comparison
  Mean Difference (95% CI) of KU vs Abraxane: 1.20 KU

Source: patent publication US20150160193A1, “TUMOR CELL ISOLATION/PURIFICATION PROCESS AND METHODS FOR USE THEREOF” (DIATECH ONCOLOGY, priority 2012, published 2015)
